Assay results: US20180118721A1, “PYRIMIDINE DERIVATIVES” (Merck Patent GmbH, priority 2015, published 2018)

Key:
[1] = target: T1, humanMTH1 (aminoacids 42 to 197) (Homo sapiens, UniProt P36639); experiment: Binding affinities and kinetics on MTH1 surfaces by surface plasmon resonance (SPR); conditions: for Kd: SPR, Biacore4000, 25° C., Table 1, grouped, read-out: KD IC50; for residence time: on MTH1, calculated on the basis of the KD values, read-out: Residence time
T1 construct: humanMTH1 (aminoacids 42 to 197); His tag at the N-terminus; purchased Abnova ab99390; host or cells: E. coli
Description: The SPR experiments were performed using a Biacore4000 instrument. […] HumanMTH1 was immobilized on Biacore CM5 chips at 25° C. and a flow rate of 10 μL/min using amine coupling at pH 5.5 and in presence of 1 μM MSC2567771B-1 according to Biacore's standard protocol. MTH1 was applied at a concentration of 10 μg/mL and depending on the duration of the injection time immobilization levels between 500 and 2,000 RU were obtained. Sample compounds were applied in form of titration series with a doubling of concentration at each subsequent injection. In general, 10 concentrations were injected covering a dilution range of 500 fold. Before and after each of these titration series the binding capability of the surface was controlled by the injection of the positive control S-Crizotinib at a fixed concentration of 2 μM. Kinetic titration experiments were performed at 25° C. with a flow rate of 30 μL/min, a sample contact time of 90 sec and a dissociation time of 420 sec in running buffer (20 mM Tris-HCl (Tris(hydroxymethyl)-aminomethane HCl) pH 7.40, 150 mM NaCl, 5 mM MgCl2, 1 mM DTT (dithiothreitol), 0.1 mM EGTA (ethylene glycol tetraacetic acid), 0.05% Tween 20) containing 2% DMSO (dimethyl sulfoxide). Buffer injections identical to the sample injections were executed at the beginning of the successive series for the purpose of double referencing. Solvent correction cycles (eight correction points, 1.4%-2.8% DMSO) were run at the same intervals. For surface conditioning ten start-up cycles (buffer injections) were run. Data points were collected at a sample rate of 10 Hz.
Data sets were processed and analyzed using the software Biacore4000 Evaluation, version 1.0. Solvent corrected and double-referenced association and dissociation phase data were fitted to a simple 1:1 interaction model with mass transport limitations.
Measured values are indicated as KD IC50 in the Table below.

[2] = target: T2, purified human recombinant MTH1 (human MTH1, residues 42-197) (Homo sapiens, UniProt P36639); experiment: MTH1 enzymatic assay (luminescence-based, PPiLight); assay type: biochemical; conditions: 6 μM 8-oxo-dGTP, Table 1, grouped
T2 construct: human MTH1, residues 42-197, Uniprot-ID: P36639, expressed in E. coli; made in house; host or cells: E. coli
Description: The IC50 value was determined by a MTH1 enzymatic assay. The assay comprises the principal steps of incubating a mixture of MTH1, the compound in question at different concentrations and 8-oxo-2′-deoxyguanosine-5′-triphosphate (8-oxo-dGTP) in assay buffer. Nucleotide triphosphate hydrolysis by MTH1, i.e. decomposition of 8-oxo-2′-deoxyguanosine-5′-triphosphate, produces 8-oxo-2′-deoxyguanosine-5′-monophosphate (8-oxo-dGMP) and pyrophosphate (PPi). The amount of generated pyrophosphate (PPi) is then measured by a bioluminescent reaction. In detail: The MTH1 (human mutT homologue 1) enzymatic assay is performed as a luminescence-based 384-well assay. […] The assay buffer contains 100 mM Tris-acetate pH 7.5, 40 mM NaCl, 10 mM Mg(OAc)2, 0.005% Tween 20 and 2 mM dithiothreitol (DTT). […] Then, in a second step, the substrate 8-oxo-dGTP is added and the reaction mixture is incubated for 30 minutes at 22° C. The pharmacologically relevant assay volume is 5 PI. The final concentrations in the assay during incubation of the reaction mixture are 0.1-0.2 nM, typically 0.1 nM, MTH1 and 6 μM 8-oxo-dGTP. After incubation of the reaction mixture, the generation of pyrophosphate (PPi) as a result of nucleotide triphosphate (8-oxo-dGTP) hydrolysis by MTH1 is detected using the PPiLight inorganic pyrophosphate assay kit (Lonza) (third step). 2 to 5 μl, such as 3 to 5 μl, typically 3 or 4 μl, for instance 4 μl, of a 1:1 mixture of PPiLight converting reagent (AMP) and PPiLight detection reagent are added to the reaction mixture. In the presence of pyrophosphate, the detection reagent catalyzes the conversion of AMP to ATP. Luciferase then produces light from the newly formed ATP and luciferin. The amount of light produced is directly proportional to the amount of PPi in the sample. Following signal development for 1 h the plates are analysed in an EnVision (PerkinElmer) microplate reader using the ultra sensitive luminescence option. Data are processed employing the Genedata Screener software. In particular, IC50 values are determined in the usual manner (using the Hill Equation) by fitting a dose-response curve to the data points using nonlinear regression analysis.
Hill Equation: Y=S0+(Sinf−S0)/(1+(10^logIC50/10^c)^n); Y: luminescence signal (response), S0: activity level at zero concentration of test compound, Sinf=activity level at infinite concentration, Hill coefficient n=measure of the slope at IC50, c=concentration in logarithmic units corresponding to the values on the x-axis of the dose response curve plot

Compound	Kd [1] [nM]	IC50 [2] [nM]	residence time [1] [min]
CC1Cc2ccccc2N1c1cc(NC2CC2)nc(N)n1 (stereo not shown) [Example 58, N4-Cyclopropyl-6-(2-methyl-2,3-dihydro-indol-1-yl)-pyrimidine-2,4-diamine]	1 to 100	1 to 100	–
Nc1nc(NC2CC2)cc(N2CCC(O)(c3ccccc3)C2)n1 (stereo not shown) [Example 32, 1-(2-Amino-6-cyclopropylamino-pyrimidin-4-yl)-3-phenyl-pyrrolidin-3-ol]	1 to 100	1 to 100	–
COc1ccccc1CCNc1cc(N2CCC(F)(F)C2)nc(N)n1 [Example 77, 6-(3,3-Difluoro-pyrrolidin-1-yl)-N4-[2-(2-methoxy-phenyl)-ethyl]-pyrimidine-2,4-diamine]	1 to 100	1 to 100	–
CNc1cc(N2CCCC2Cc2cccc(Cl)c2)nc(N)n1 (stereo not shown) [Example 85, 6-[2-(3-Chloro-benzyl)-pyrrolidin-1-yl]-N4-methyl-pyrimidine-2,4-diamine]	< 1	< 1	–
CNc1cc(N2CCCC2Cc2ccc(Cl)cc2)nc(N)n1 (stereo not shown) [Example 84, 6-[2-(4-Chloro-benzyl)-pyrrolidin-1-yl]-N4-methyl-pyrimidine-2,4-diamine]	1 to 100	< 1	–
CNc1cc(N2CCCCC2Cc2ccccc2Cl)nc(N)n1 (stereo not shown) [Example 105, 6-[2-(2-Chloro-benzyl)-piperidin-1-yl]-N4-methyl-pyrimidine-2,4-diamine]	1 to 100	< 1	≥ 10
C[C@@H]1C(c2ccccc2)CCN1c1cc(NC2CC2)nc(N)n1 (stereo in doubt) [Example 57, N4-Cyclopropyl-6-((2R,3R)-2-methyl-3-phenyl-pyrrolidin-1-yl)-pyrimidine-2,4-diamine]	1 to 100	1 to 100	–
CC1(O)CCN(c2cc(NC3CC3)nc(N)n2)C1 (stereo not shown) [Example 43, 1-(2-Amino-6-cyclopropylamino-pyrimidin-4-yl)-3-methyl-pyrrolidin-3-ol]	1 to 100	1 to 100	–
CNc1cc(N2CCC[C@](O)(c3ccccc3)C2)nc(N)n1 (single isomer, unassigned) [Example 91]	1 to 100	1 to 100	–
Nc1nc(NC2CC2)cc(N2CC[C@@](O)(C(F)(F)F)C2)n1 [Example 49, (S)-1-(2-Amino-6-cyclopropylamino-pyrimidin-4-yl)-3-trifluoromethyl-pyrrolidin-3-ol]	1 to 100	< 1	–
C[C@@H]1C[C@H](O)CN1c1cc(NC2CC2)nc(N)n1 [Example 45, (3S,5R)-1-(2-Amino-6-cyclopropylamino-pyrimidin-4-yl)-5-methyl-pyrrolidin-3-ol]	1 to 100	1 to 100	–
CNc1cc(N2CCCCC2Cc2ccccc2OC)nc(N)n1 (stereo not shown) [Example 100, 6-[2-(2-Methoxy-benzyl)-piperidin-1-yl]-N4-methyl-pyrimidine-2,4-diamine]	1 to 100	< 1	≥ 10

The next lines start with results.

Kd [1] [nM]	IC50 [2] [nM]	Compound	residence time [1] [min]
1 to 100	1 to 100	Nc1nc(NC2CC2)cc(N2CCC[C@H]2Cc2ccccc2Cl)n1 [Example 48, 6-[(S)-2-(2-Chloro-benzyl)-pyrrolidin-1-yl]-N4-cyclopropyl-pyrimidine-2,4-diamine]	–
1 to 100	< 1	NC(=O)[C@H]1CCN(c2nc(N)nc3c2CCCN3)C1 [Example 78, (S)-1-(2-Amino-5,6,7,8-tetrahydro-pyrido[2,3-d]pyrimidin-4-yl)-pyrrolidine-3-carboxylic acid amide-formiate]	–
> 100	> 100	Nc1nc(NC2CC2)cc(N2C[C@H](O)CC2=O)n1 [Example 86, (R)-1-(2-Amino-6-cyclopropylamino-pyrimidin-4-yl)-4-hydroxy-pyrrolidin-2-one]	–
1 to 100	< 1	CNc1cc(N2CCCCC2c2cc3ccccc3o2)nc(N)n1 (stereo not shown) [Example 81, 6-(2-Benzofuran-2-yl-piperidin-1-yl)-N4-methyl-pyrimidine-2,4-diamine]	–
1 to 100	< 1	Nc1nc2c(c(N3CCC(F)(F)C3)n1)CCCN2 [Example 63, 4-(3,3-Difluoro-pyrrolidin-1-yl)-5,6,7,8-tetrahydro-pyrido[2,3-d]pyrimidin-2-ylamine]	–
1 to 100	< 1	Nc1nc(NC2CC2)cc(N2CCCc3ccccc32)n1 [Example 51, N4-Cyclopropyl-6-(3,4-dihydro-2H-quinolin-1-yl)-pyrimidine-2,4-diamine]	–
1 to 100	1 to 100	Nc1nc(NC2CC2)cc(N2CCc3ccccc32)n1 [Example 35, N4-Cyclopropyl-6-(2,3-dihydro-indol-1-yl)-pyrimidine-2,4-diamine]	–
< 1	< 1	CNc1cc(N2CCCC[C@H]2Cc2ccc(OC)cc2)nc(N)n1 [Example 117, 6-[(S)-2-(4-Methoxy-benzyl)-piperidin-1-yl]-N4-methyl-pyrimidine-2,4-diamine]	–
< 1	< 1	C[C@H]1C[C@@H](O)CN1c1cc(NC2CC2)nc(N)n1 [Example 46, (3R,5S)-1-(2-Amino-6-cyclopropylamino-pyrimidin-4-yl)-5-methyl-pyrrolidin-3-ol]	–
1 to 100	1 to 100	Nc1nc(NCC2CCCC2)cc(N2CCC(F)(F)C2)n1 [Example 76, N4-Cyclopentylmethyl-6-(3,3-difluoro-pyrrolidin-1-yl)-pyrimidine-2,4-diamine]	–
> 100	> 100	Nc1nc(NC2CC2)cc(N2CCCC2C(=O)NCc2ccccc2Cl)n1 (stereo not shown) [Example 88, 1-(2-Amino-6-cyclopropylamino-pyrimidin-4-yl)-pyrrolidine-2-carboxylic acid 2-chloro-benzylamide]	–
1 to 100	1 to 100	C[C@]1(O)CCN(c2cc(NC3CC3)nc(N)n2)C1 [Example 53, (S)-1-(2-Amino-6-cyclopropylamino-pyrimidin-4-yl)-3-methyl-pyrrolidin-3-ol]	–
1 to 100	1 to 100	Nc1nc(NC2CC2)cc(N2CC[C@H](O)C2)n1 [Example 44, (S)-1-(2-Amino-6-cyclopropylamino-pyrimidin-4-yl)-pyrrolidin-3-ol]	–
1 to 100	1 to 100	C[C@@H]1[C@H](c2ccccc2)CCN1c1cc(NC2CC2)nc(N)n1 (stereo in doubt) [Example 56, N4-Cyclopropyl-6-((2R,3S)-2-methyl-3-phenyl-pyrrolidin-1-yl)-pyrimidine-2,4-diamine]	–
1 to 100	1 to 100	C[C@H]1[C@H](c2ccccc2)CCN1c1cc(NC2CC2)nc(N)n1 (stereo in doubt) [Example 55, N4-Cyclopropyl-6-((2S,3S)-2-methyl-3-phenyl-pyrrolidin-1-yl)-pyrimidine-2,4-diamine]	–
1 to 100	1 to 100	CNc1cc(N2CC[C@H](O)C2)nc(N)n1 [Example 62, (S)-1-(2-Amino-6-methylamino-pyrimidin-4-yl)-pyrrolidin-3-ol]	–
